Reference: patent EP2698384A1, “Detection of synthetic cannabinoids” (priority 2012, dated 2014)
Counter-ions that a name gives are not always drawn. Like-named read-outs stand apart in the source and are kept apart here.

Legend:
Assay type in all cases: binding, sheep
Antibody to Immunogen VI = system: Antibody to Immunogen VI
Method: (§1) The wells of an enhanced binding 96 well polystyrene microtiter plate were coated with IgG fraction of antiserum raised to Immunogen VI, diluted in 10mM Tris, pH8.5 (125µl/well). The appropriate antibody coating dilution was determined using standard ELISA checkerboard techniques. The plate was incubated overnight at 4°C, washed 4 times over 10 minutes with Tris buffered saline containing Tween 20 (TBST) and tapped dry. Standard solutions of RCS-4 were prepared in TBST at 0, 0.3125, 0.625, 1.25, 2.5, 5, 10 and 20ng/ml, and 50µl of each was added to the appropriate wells (see figure 1). 75µl of conjugate (appropriate hapten-HRP) diluted in Tris buffer (pH 7.2) containing EDTA, D-mannitol, sucrose, thimerosal and BSA, was added to each of the wells. The appropriate dilution of conjugate was also determined using standard ELISA checkerboard techniques. The plate was incubated at 25°C for 1 hour. Excess unbound conjugate was removed by washing 6 times over a 10 minute period with TBST. 125µl oftetramethylbenzidine (TMB) substrate solution was added to each well of the plate that was then incubated for 20 minutes in the dark at room temperature. The reaction was terminated by addition of 125µl 0.2M H2SO4 to each well. The absorbance was then measured at 450nm using a microtiter plate reader. The data are inputted to a computer program called 'KC Junior'. It is a 4 parameter fit curve and allow the calculatation of concentrations between the standard runs. This program is used to calculate the IC50s by dividing the 0ng/ml OD value by 2 and obtaining the concentration value from the curve for this OD.
(§2) The data set our in Tables 3 and 4 are generated using antibodies raised against the indicated Immunogens in a competitive binding assay with the indicated tracers, using the indicated standards: Table 2
(§3) In order to determine the specificity of the competitive ELISAs, standard solutions of a range of structurally similar synthetic cannabinoids and their metabolites were prepared in TBST. Using the calibration curves generated and employing a single level of cross reactants, these were used to determine the cross-reactivity of each immunoassay with these substances. Table 4: Cross reactivity of the competitive ELISAs for synthetic cannabinoids and their metabolites

Antibody to Immunogen V = conditions: Cross-reactants at 100 ng/ml; 1000ng/ml; single level of cross reactants
Method: as §1
In a similar manner to that described above, the wells of a 96-well microtiter plate were coated with the IgG fraction of the antiserum raised to Immunogens IV, V, VII or VIII. Standard solutions (RCS-8 for Immunogen V) were prepared in TBST at 0, 1.25, 2.5, 5, 10, 20, 40 and 80ng/ml and conjugate was employed as detection reagent.
as §2, §3

[1] = system: Antibody to Immunogen III; conditions: Cross-reactants at 100 ng/ml; 1000ng/ml; single level of cross reactants
Method: as §1
In a similar manner to that described above, the wells of a 96-well microtiter plate were coated with the IgG fraction of the antiserum raised to Immunogens I, II or III. Standard solutions (JWH-250 for Immunogen III) were applied at 0, 0.625, 1.25, 2.5, 5, 10, 20 and 40ng/ml and conjugate was employed as detection reagent.
as §2, §3

[2] = Cross-reactants at 100 ng/ml, 1000ng/ml, single level of cross reactants

Compound | %B/B0 (Antibody to Immunogen VI; [2]) [%] | %B/B0 (Antibody to Immunogen V) [%] | %B/B0 [1] [%] | other results
COc1ccc(CC(=O)c2cn(CCC3CCCCC3)c3ccccc23)cc1 [RCS-8 4-methoxy isomer] | 89.48 | 81.97 | 76.06 | –
CC(O)CCn1cc(C(=O)c2cccc3ccccc23)c2ccccc21 (centres unmarked) [JWH-073 N-(3-hydroxybutyl) metabolite] | 72.55 | 63.79 | 94.05 | –
CCCCCCC(C)(C)C1=CC(=O)C(C2CCCC(O)C2)=CC1=O (centres unmarked) [CP-47,497-para-quinone analogue] | 94.38 | 72.98 | 96.58 | –
CCCCCn1cc(C(=O)Cc2ccccc2OC)c2cc(O)ccc21 [JWH 250 5-hydroxyindole metabolite] | 91.28 | 37.39 | 65.83 | –
CCCCCn1cc(C(=O)c2cccc(OC)c2)c2ccccc21 [RCS-4 3-methoxy isomer] | 41.84 | 66.18 | 58.00 | –
O=C(c1cccc2ccccc12)c1cn(CCN2CCOCC2)c2ccc(O)cc12 [JWH-200 5-hydroxyindole metabolite] | 93.65 | 82.38 | 96.49 | –
O=C(c1ccc2ccccc2c1)c1cn(CCN2CCOCC2)c2ccccc12 [JWH-200 2'-naphthyl isomer] | 20.66 | 75.36 | 99.13 | –
CCCCCCC(C)(C)c1cc(O)c2c(c1)OC(C)(C)[C@H]1CC=C(CO)C[C@H]21 [HU-211 (Dexanabinol), Dexanabinol] | 98.97 | 71.68 | 95.96 | –
O=C(c1ccc(I)cc1)c1cn(CCCCCF)c2ccccc12 [AM-694 4-iodo isomer] | 16.99 | 77.65 | 65.53 | –
CCCCCn1cc(C(=O)Cc2cccc(C)c2)c2ccccc21 [JWH 251 3-methylphenyl isomer] | 73.53 | 26.65 | 21.39 | –
O=C(c1ccccc1I)c1cn(CCCCCF)c2ccccc12 [AM-694] | 70.77 | 64.61 | 72.80 | –
CC(C)(C)Cn1cc(C(=O)c2cccc3ccccc23)c2ccccc21 [JWH-018 N-(2,2-dimethylpropyl) isomer] | 78.92 | 67.14 | 95.58 | –
CCCCCn1c(C)c(C(=O)c2ccc(OC)c3ccccc23)c2ccccc21 [JWH-098] | 78.96 | 81.09 | 74.71 | –
CCCCCn1cc(C(=O)Cc2ccccc2C)c2ccccc21 [JWH-251] | 79.72 | 13.61 | 17.28 | –
O=C(c1cccc(I)c1)c1cn(CCCCCF)c2ccccc12 [AM-694 3-iodo isomer] | 44.38 | 63.18 | 67.86 | –
COc1ccccc1CC(=O)c1cn(CCCCCC(=O)O)c2ccccc12 [JWH 250 N-(5-carboxypentyl) metabo lite] | 85.31 | 8.60 | 89.61 | –
CCCCCCn1cc(C(=O)c2cccc3ccccc23)c2ccccc21 [JWH-019] | 78.02 | 70.25 | 88.06 | –
CCCCn1cc(C(=O)c2cccc3ccccc23)c2c(O)cccc21 | 84.39 | 76.09 | 84.57 | –
CCCCCn1cc(C(=O)c2c(C)ccc3ccccc23)c2ccccc21 [JWH 122 2-methylnaphthyl isomer] | 90.59 | 83.38 | 80.25 | –
CCCCCn1cc(C(=O)c2cccc3ccccc23)c2cc(O)ccc21 | 95.94 | 88.70 | 96.24 | –
CCCn1c(C)c(C(=O)c2cccc3ccccc23)c2ccccc21 [JWH-015] | 77.06 | 73.42 | 93.97 | –

Compound | %B/B0 (Antibody to Immunogen VI; [2]) [%] | %B/B0 (Antibody to Immunogen V) [%] | %B/B0 [1] [%] | other results
CC(O)CCCn1cc(C(=O)c2cccc3ccccc23)c2ccccc21 (racemic) | 76.16 | 75.59 | 86.69 | –
NCCc1c[nH]c2ccc(O)cc12 [Serotonin HCl] | 98.60 | 85.91 | 87.69 | –
COc1ccc(C(=O)c2cn(CCCC(C)O)c3ccccc23)cc1 (centres unmarked) [RCS-4 N-(4-hydroxypentyl) metabolite] | 5.69 | 71.93 | 66.40 | –
CCCCCn1c(O)c(C(=O)c2cccc3ccccc23)c2ccccc21 | 101.92 | 98.82 | 97.61 | –
CN1CCCCC1Cn1cc(C(=O)c2cc([N+](=O)[O-])ccc2I)c2ccccc21 (centres unmarked) [AM-1241] | 99.43 | 71.68 | 102.11 | –
O=C(c1cccc2ccccc12)c1cn(CCCC(O)CF)c2ccccc12 (centres unmarked) [AM-2201 N-(4-hydroxypentyl) metabolite] | 77.68 | 50.40 | 68.76 | –
CCCCn1cc(C(=O)c2cccc3ccccc23)c2cc(O)ccc21 | 85.96 | 82.86 | 95.65 | –
CCCCCn1cc(C(=O)c2ccc(OC)cc2)c2ccccc21 [RCS-4] | 4.90 | 64.84 | 57.10 | IC50 (Antibody to Immunogen VI; standard RCS-4, standard concentration which produces 50% B/B0): 1.020 ng/mL; %B/B0 (Antibody to Immunogen VI; standard curve, RCS-4 0.3125 ng/ml): 74%; %B/B0 (Antibody to Immunogen VI; standard curve, RCS-4 0.625 ng/ml): 60%; %B/B0 (Antibody to Immunogen VI; standard curve, RCS-4 1.25 ng/ml): 46%; %B/B0 (Antibody to Immunogen VI; standard curve, RCS-4 2.5 ng/ml): 34%; %B/B0 (Antibody to Immunogen VI; standard curve, RCS-4 5 ng/ml): 25%; %B/B0 (Antibody to Immunogen VI; standard curve, RCS-4 10 ng/ml): 18%; %B/B0 (Antibody to Immunogen VI; standard curve, RCS-4 20 ng/ml): 13%
CCCCCn1cc(C(=O)c2cccc3ccc(C)cc23)c2ccccc21 [JWH 122 7-methylnaphthyl isomer] | 86.92 | 78.80 | 71.72 | –
CCCCCn1cc(C(=O)c2ccc(C)c3ccccc23)c2ccccc21 [JWH-122] | 75.29 | 69.63 | 69.90 | –
CCCCCC(C)n1c(C)c(C(=O)c2cccc3ccccc23)c2ccccc21 (centres unmarked) [JWH-011] | 88.22 | 83.73 | 93.19 | –
CCCCn1cc(C(=O)c2ccc(C)c3ccccc23)c2ccccc21 [JWH-073 4-methylnaphthyl analogue] | 70.97 | 65.84 | 78.03 | –
CCCCCn1cc(C(=O)c2cccc3cc(C)ccc23)c2ccccc21 [JWH 122 6-methylnaphthyl isomer] | 84.77 | 77.08 | 73.75 | –
COc1ccc(C(=O)c2cn(CCCCCC(=O)O)c3ccccc23)cc1 [RCS-4 N-(5-carboxypentyl) metabolite] | 4.25 | 60.79 | 91.87 | –
CCCCCCn1cc(C(=O)c2cccc3ccccc23)c2cc(O)ccc21 | 89.29 | 79.13 | 95.38 | –
CCCCCn1cc(C(=O)c2ccc(CC)c3ccccc23)c2ccccc21 [JWH-210] | 72.07 | 70.20 | 69.64 | –
CC(C)CCn1cc(C(=O)c2cccc3ccccc23)c2ccccc21 [JWH 018 N-(3-methylbutyl) isomer (JWH-073 3-methylbutyl homologue)] | 66.63 | 63.42 | 82.58 | –
O=C(O)CCCCn1cc(C(=O)c2cccc3ccccc23)c2ccccc21 [JWH-018 N-pentanoic acid metabolite] | 65.90 | 72.42 | 100.98 | –
CCCCCn1cc(C(=O)c2cccc3ccc(CC)cc23)c2ccccc21 [JWH-210 7-ethylnaphthyl isomer or JWH-234] | 87.07 | 85.10 | 73.32 | –
CCCCCCC(C)(C)c1ccc([C@H]2CCC[C@@H](O)C2)c(O)c1 (racemic) [CP-49,497-C7 ((+-) CP 47,497)] | 95.90 | 69.53 | 96.91 | –
